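Each compound was tested at five concentrations against cells in 96-well plates for 48 hours. At the GI50, growth is halved. At the TGI there is no net growth.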

Test systems include CCRF-CEM leukemia; EKVX NSCLC; IGROV1 ovarian; KM12 colon; MDA-MB-231 breast; MOLT-4 leukemia; NCI-H522 lung; OVCAR-4 ovarian; OVCAR-5 ovarian; SF-268 CNS; SF-295 CNS; SW-620 colon; K-562 leukemia.
What all share (assay): NCI anticancer screen, dose series, 48 h

Take `C=C[C@@H]1C[C@]2(C(=O)OC)Cc3nc4ccccc4nc3CC(C(=O)OC)=C2O1`: the TGI in the experiment with CCRF-CEM leukemia, with EKVX NSCLC, in the experiment on IGROV1 ovarian, in the experiment on KM12 colon, in the experiment on MDA-MB-231 breast and in the experiment with MOLT-4 leukemia was more than 100 µM throughout. Besides, the TGI in the experiment with NCI-H522 lung, in the experiment on OVCAR-4 ovarian, in the experiment with OVCAR-5 ovarian, in the experiment on SF-268 CNS, with SF-295 CNS and with SW-620 colon was more than 100 µM each time.

In the case of `COc1cc2cccc(N)c2cc1OC`, the TGI in the experiment with CCRF-CEM leukemia, with EKVX NSCLC, in the experiment on IGROV1 ovarian, with K-562 leukemia, in the experiment on KM12 colon and in the experiment with MDA-MB-231 breast was more than 100 µM throughout. The TGI in the experiment with MOLT-4 leukemia, with NCI-H522 lung, with OVCAR-4 ovarian, with OVCAR-5 ovarian, with SF-268 CNS and with SF-295 CNS was more than 100 µM each time. For the same molecule, in the experiment with SW-620 colon, the TGI was more than 100 µM.

For the molecule `C=C(C)[C@H]1C=C[C@@H](OC(=O)c2cccnc2)[C@@]23CO[C@@](C)([C@H](OC(=O)c4cccnc4)[C@@]4(OC(C)=O)C[C@H](C)[C@H](OCCC)[C@@H]4[C@H]2OC(C)=O)[C@H]13`, the TGI with CCRF-CEM leukemia, with EKVX NSCLC, with IGROV1 ovarian, in the experiment on K-562 leukemia, in the experiment with KM12 colon and in the experiment with MDA-MB-231 breast was more than 15 µM in each case. The TGI in the experiment on MOLT-4 leukemia, in the experiment with NCI-H522 lung, in the experiment on OVCAR-4 ovarian, with OVCAR-5 ovarian, in the experiment on SF-268 CNS and in the experiment on SF-295 CNS was more than 15 µM throughout. In addition, in the experiment with SW-620 colon, the TGI is more than 15 µM.

On to `CN(NC(=O)c1cccs1)C1=NCCCCN1`, for which the TGI with CCRF-CEM leukemia, with EKVX NSCLC, with IGROV1 ovarian, with K-562 leukemia, with KM12 colon and in the experiment with MDA-MB-231 breast was more than 100 µM throughout. Also, the TGI in the experiment with MOLT-4 leukemia, in the experiment on NCI-H522 lung, in the experiment on OVCAR-4 ovarian, in the experiment with OVCAR-5 ovarian, in the experiment on SF-268 CNS and in the experiment with SF-295 CNS was more than 100 µM each time. The TGI in the experiment with SW-620 colon was more than 100 µM.

Regarding `NCCN1C(=O)CN=C(c2ccc(Cl)cc2)c2cc(Cl)ccc21`, the TGI in the experiment with CCRF-CEM leukemia is 64.2 µM; with EKVX NSCLC, 84.5 µM; with IGROV1 ovarian it was 27.1 µM; in the experiment with K-562 leukemia, 34.8 µM; with KM12 colon it was 31.3 µM; in the experiment with MDA-MB-231 breast, 30.5 µM. Besides, the TGI in the experiment on MOLT-4 leukemia was 73.8 µM; with NCI-H522 lung, 37.3 µM; in the experiment on OVCAR-4 ovarian it was 32.1 µM; in the experiment with OVCAR-5 ovarian it was 30.9 µM; with SF-268 CNS, 30.4 µM; in the experiment on SF-295 CNS, more than 100 µM. Besides, the TGI with SW-620 colon was 43 µM.

In the case of `COc1cccc2c1OC(c1ccc(C#N)cc1)C([N+](=O)[O-])=C2` (configuration not stated), the TGI is 4.51 µM with CCRF-CEM leukemia; 18.9 µM in the experiment with EKVX NSCLC; 3.76 µM with IGROV1 ovarian; more than 100 µM in the experiment with K-562 leukemia; 2.92 µM in the experiment on MDA-MB-231 breast; 0.412 µM with NCI-H522 lung. Further, the TGI in the experiment on OVCAR-4 ovarian came out at 3.11 µM; with OVCAR-5 ovarian it was 3.72 µM; in the experiment with SF-268 CNS, 16.1 µM; with SF-295 CNS it was 18.5 µM; with SW-620 colon it was 2.8 µM.

On to `CC(SC(=S)N1CCOCC1)C(=O)Nc1nnc(-c2ccccc2)o1` (configuration not stated), for which the TGI was 18.3 µM with CCRF-CEM leukemia; more than 100 µM in the experiment with EKVX NSCLC; more than 100 µM in the experiment with IGROV1 ovarian; more than 100 µM in the experiment on K-562 leukemia; more than 100 µM in the experiment with KM12 colon; more than 100 µM in the experiment with MDA-MB-231 breast. Besides, the TGI in the experiment on MOLT-4 leukemia, in the experiment with NCI-H522 lung, in the experiment with OVCAR-4 ovarian, in the experiment with OVCAR-5 ovarian, in the experiment with SF-295 CNS and in the experiment on SW-620 colon was more than 100 µM each time.

Take `CC(=O)Nc1cc2c3c(c1)CCCN3CCC2`: the TGI with CCRF-CEM leukemia, in the experiment with EKVX NSCLC, with IGROV1 ovarian, in the experiment on K-562 leukemia, with KM12 colon and in the experiment with MDA-MB-231 breast was more than 100 µM each time. The TGI with MOLT-4 leukemia, in the experiment on NCI-H522 lung, in the experiment on OVCAR-4 ovarian, in the experiment on OVCAR-5 ovarian, in the experiment with SF-295 CNS and with SW-620 colon was more than 100 µM in each case.

With `COc1ccc(C(CC(=O)C(C)(C)CN2CCCCC2)SCCS(=O)(=O)O)cc1` (configuration not stated), the TGI in the experiment with CCRF-CEM leukemia is 55.1 µM; in the experiment on EKVX NSCLC, more than 100 µM; in the experiment with IGROV1 ovarian, more than 100 µM; in the experiment with K-562 leukemia, more than 100 µM; in the experiment with KM12 colon, more than 100 µM; with MDA-MB-231 breast, 75.1 µM. For the same molecule, the TGI was 57 µM in the experiment with MOLT-4 leukemia; 43.4 µM with NCI-H522 lung; more than 100 µM in the experiment with OVCAR-4 ovarian; more than 100 µM in the experiment on OVCAR-5 ovarian; more than 100 µM with SF-295 CNS; more than 100 µM in the experiment with SW-620 colon.

Take `COc1cc(S(=O)(=O)Nc2ccc(-c3csc(N)n3)cc2)ccc1Cl`: the TGI with CCRF-CEM leukemia was found to be 53.5 µM; in the experiment on EKVX NSCLC it was 30.2 µM; in the experiment with K-562 leukemia, 44.3 µM; in the experiment with MDA-MB-231 breast, 31.4 µM; with MOLT-4 leukemia, 31.7 µM; with NCI-H522 lung, 42.4 µM. Moreover, the TGI in the experiment on OVCAR-4 ovarian is 27.9 µM; with OVCAR-5 ovarian, 40.4 µM; in the experiment on SF-268 CNS, 76.6 µM; with SW-620 colon, 58.5 µM.

`CC(=O)Nc1ccc2[nH]c(-c3cccc(Cl)c3)cc(=O)c2c1`: the TGI in the experiment on CCRF-CEM leukemia, in the experiment on EKVX NSCLC, in the experiment with IGROV1 ovarian, with KM12 colon, in the experiment on MDA-MB-231 breast and with MOLT-4 leukemia was more than 100 µM throughout. In addition, the TGI with NCI-H522 lung, in the experiment on OVCAR-4 ovarian, in the experiment on OVCAR-5 ovarian and with SW-620 colon was more than 100 µM throughout. Moreover, the GI50 with OVCAR-4 ovarian is more than 100 µM.

The values are drawn from PubChem BioAssay (NCI).
